Assay [1] deals with primary rat hepatocytes. As to the kind of experiment: DCA-induced cytotoxicity, LDH release. It counts as cell-based. As for the experimental part: Primary rat hepatocytes were isolated from male rats (100-150 grams) by collagenase perfusion (as described by Solá S, et al., 2003, Journal of Biological Chemistry 278: 48831-48838)). Briefly, rats were anesthetized with phenobarbital sodium (100 mg/kg body weight) injected into the peritoneal cavity. After administration of heparin (200 units/kg body weight) in the tail vein, the animal's abdomen was opened and the portal vein exposed and cannulated. The liver was then perfused at 37° C. in situ with a calcium-free Hanks' Balanced Salt Solution (HBSS) for about 10 minutes, and then with 0.05% collagenase type IV in calcium-present HBSS for another 10 minutes. Hepatocyte suspensions were obtained by passing collagenase-digested livers through 125 μm gauze and washing cells in Complete William's E medium (William's E medium, Sigma-Aldrich Corp., St Louis, Mo., USA) supplemented with 26 mM sodium bicarbonate, 23 mM HEPES, 0.01 units/mL insulin, 2 mM L-glutamine, 10 nM dexamethasone, 100 units/mL penicillin, and 10% heat-inactivated fetal bovine serum (Invitrogen Corp., Carlsbad, Calif., USA). Viable primary rat hepatocytes were enriched by low-speed centrifugation at 200 g for 3 minutes. Cell viability was determined by trypan blue exclusion and was typically 80-85%. After isolation, hepatocytes were resuspended in Complete William's E medium and plated on PrimariaTM tissue culture dishes (BD Biosciences, San Jose, Calif., USA) at 5×10^4 cells/cm^2. Cells were maintained at 37° C. in a humidified atmosphere of 5% CO2 for 6 hours to allow attachment. Plates were then washed with medium to remove dead cells and incubated in Complete William's E medium supplemented with either 100-400 μM UDCA (Sigma-Aldrich Corp.), 100-400 μM deuterated UDCA (compound 5), or no addition (control). Eight hours after pre-incubation, cells were exposed to 1 nM recombinant human TGF-β1 (R&D Systems Inc., Minneapolis, Minn., USA) for 36 hours, or to 50 or 100 μM DCA for 16 hours before processing for cell viability, cytotoxicity and apoptosis assays. The ApoTox-GloTM Triplex Assay (Promega Corp., Madison, Wis., USA) was used to evaluate cell viability, cytotoxicity and caspase-3/7 activity, according to the manufacturer's protocol, using a GloMax+ Multi Detection System (Promega Corp.). General cell death was also evaluated using the lactate dehydrogenase (LDH) Cytotoxicity Detection Kit^PLUS (Roche Diagnostics GmbH, Mannheim, Germany), following the manufacturer's instructions. FIG. 7 illustrates that Compound 5 prevents DCA-induced cytotoxicity and apoptosis in primary rat hepatocytes. […] Results are expressed as means±SEM of at least three experiments. *p<0.01 from control; § p<0.05 and †p<0.01 from respective DCA.
In general terms: LDH in the medium is a marker of cell lysis.

Assay [2] deals with primary rat hepatocytes. The assay can be described thus: DCA-induced caspase-3/7 activity (ApoTox-Glo Triplex). Type of assay: cell-based. The settings on record: 50 and 100 μM DCA; pretreatment; FIG. 7B. As for the experimental part:
Primary rat hepatocytes were isolated from male rats (100-150 grams) by collagenase perfusion (as described by Solá S, et al., 2003, Journal of Biological Chemistry 278: 48831-48838)). Briefly, rats were anesthetized with phenobarbital sodium (100 mg/kg body weight) injected into the peritoneal cavity. After administration of heparin (200 units/kg body weight) in the tail vein, the animal's abdomen was opened and the portal vein exposed and cannulated. The liver was then perfused at 37° C. in situ with a calcium-free Hanks' Balanced Salt Solution (HBSS) for about 10 minutes, and then with 0.05% collagenase type IV in calcium-present HBSS for another 10 minutes. […] Cell viability was determined by trypan blue exclusion and was typically 80-85%. […]
The ApoTox-Glo™ Triplex Assay (Promega Corp., Madison, Wis., USA) was used to evaluate cell viability, cytotoxicity and caspase-3/7 activity, according to the manufacturer's protocol, using a GloMax+ Multi Detection System (Promega Corp.). General cell death was also evaluated using the lactate dehydrogenase (LDH) Cytotoxicity Detection Kit^PLUS (Roche Diagnostics GmbH, Mannheim, Germany), following the manufacturer's instructions. […]

The text below walks through data of US10144758B2, “Deuterated bile acids” (Metselex, Inc., priority 2013, dated 2018).

As for “7,8-[^2H]-3α,7α-dihydroxy-5β-cholan-24-oic acid/7-[^2H]-3α,7α-dihydroxy-5β-cholan-24-oic acid [Compound 5]”, the “inhibition of DCA-induced LDH release” value with primary rat hepatocytes [1] (50 μM DCA 16 hours, 100 μM compound pre-incubated 8 hours, FIG. 7A) stood at 90%. In addition, in the assay on primary rat hepatocytes [1] (50 μM DCA, Compound 5 versus UDCA), the “protective effect on LDH release greater than UDCA” value is given as “more than 10%”. Further, the “protection against DCA-induced LDH release” value with primary rat hepatocytes [1] (100 μM DCA, compared with 50 μM DCA) is given as “Slightly reduced protection”. The “inhibition of caspase activity” value in the assay with primary rat hepatocytes [2] is on record as “more effective than UDCA”.

A word on the inhibition: it is how much of the control response was suppressed. A high value points to a response far below the control. In the assay on primary rat hepatocytes [1] (Rattus norvegicus, Hepatocyte, 50 μM DCA 16 hours, 100 μM compound pre-incubated 8 hours, FIG. 7A), `C[C@H](CCC(=O)O)[C@H]1CC[C@H]2[C@@H]3[C@@H](O)C[C@@H]4C[C@H](O)CC[C@]4(C)[C@H]3CC[C@]12C` [UDCA, Ursodeoxycholic acid, reference compound] came in with an inhibition at 100 µM of 70%.
